Patent US20220213092A1, “BICYCLIC PYRAZOLE BRUTON'S TYROSINE KINASE INHIBITORS” (AbbVie Inc., priority 2020, published 2022)

What was measured:
BMX = molecular target: T1, BMX (Homo sapiens, UniProt P51813); test: Other kinase MSA: BMX; assay type: biochemical
T1 sequence (P51813 1-675): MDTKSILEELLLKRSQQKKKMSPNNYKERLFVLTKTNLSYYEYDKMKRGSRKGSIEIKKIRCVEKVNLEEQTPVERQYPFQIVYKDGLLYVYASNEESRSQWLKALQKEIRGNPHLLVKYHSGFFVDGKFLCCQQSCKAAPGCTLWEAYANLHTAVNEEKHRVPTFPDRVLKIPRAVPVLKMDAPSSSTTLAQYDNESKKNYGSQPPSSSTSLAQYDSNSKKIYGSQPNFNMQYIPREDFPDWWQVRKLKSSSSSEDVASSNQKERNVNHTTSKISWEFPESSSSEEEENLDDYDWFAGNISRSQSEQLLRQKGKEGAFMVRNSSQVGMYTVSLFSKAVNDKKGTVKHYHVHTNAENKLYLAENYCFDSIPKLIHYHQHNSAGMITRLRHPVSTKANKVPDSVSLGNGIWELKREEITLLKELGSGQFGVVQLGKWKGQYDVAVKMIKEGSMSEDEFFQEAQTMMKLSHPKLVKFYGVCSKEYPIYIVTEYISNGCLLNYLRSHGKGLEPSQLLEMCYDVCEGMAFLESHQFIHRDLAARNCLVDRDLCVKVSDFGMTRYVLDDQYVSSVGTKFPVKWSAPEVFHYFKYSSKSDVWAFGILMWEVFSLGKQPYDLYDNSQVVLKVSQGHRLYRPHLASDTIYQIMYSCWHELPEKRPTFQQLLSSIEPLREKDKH
Procedure: (§1) Kinase activity, unless otherwise indicated, was measured in vitro using an electrophoretic mobility shift assay (MSA). The phosphorylation of a peptide substrate by BTK and other kinases was measured. The kinase reactions were assembled in a total volume of 25 μL per well in 384 well plates. The following was added to each well: compound buffer (or control); enzyme buffer; and substrate buffer, as further described below.
(§2) Enzyme and compound/inhibitor were optionally pre-incubated. To each well was added: 8 μL of 2.5×ATP and substrate in 1× Master Buffer (1× Master Buffer as described above). The plate was incubated at room temperature for 3 hours. […] OG488 was Oregon Green dye, which was conjugated to the peptide substrate. […] The kinase activity for the kinases in Table 3 were measured at 3 hours incubation time, except that in the case of MAP2K1 and MAP2K2 assay, pre-activation of ERK was done for 30 min with 6 μM of ATP, and then the detection of activated ERK in the presence of compounds was done after 60 minutes of incubation.
(§3) The terminated reactions were analyzed using a 12 channel LABCHIP® 3000 microfluidic detection instrument (available from Caliper Life Sciences, Waltham, Mass.). […] Change in the relative fluorescence intensity of the substrate and product peaks was the parameter measured, reflecting enzyme activity. […]

ERBB4 = ERBB4 (Homo sapiens, UniProt Q15303); test: biochemical
ERBB4, sequence (Q15303 26-1308, species assumed): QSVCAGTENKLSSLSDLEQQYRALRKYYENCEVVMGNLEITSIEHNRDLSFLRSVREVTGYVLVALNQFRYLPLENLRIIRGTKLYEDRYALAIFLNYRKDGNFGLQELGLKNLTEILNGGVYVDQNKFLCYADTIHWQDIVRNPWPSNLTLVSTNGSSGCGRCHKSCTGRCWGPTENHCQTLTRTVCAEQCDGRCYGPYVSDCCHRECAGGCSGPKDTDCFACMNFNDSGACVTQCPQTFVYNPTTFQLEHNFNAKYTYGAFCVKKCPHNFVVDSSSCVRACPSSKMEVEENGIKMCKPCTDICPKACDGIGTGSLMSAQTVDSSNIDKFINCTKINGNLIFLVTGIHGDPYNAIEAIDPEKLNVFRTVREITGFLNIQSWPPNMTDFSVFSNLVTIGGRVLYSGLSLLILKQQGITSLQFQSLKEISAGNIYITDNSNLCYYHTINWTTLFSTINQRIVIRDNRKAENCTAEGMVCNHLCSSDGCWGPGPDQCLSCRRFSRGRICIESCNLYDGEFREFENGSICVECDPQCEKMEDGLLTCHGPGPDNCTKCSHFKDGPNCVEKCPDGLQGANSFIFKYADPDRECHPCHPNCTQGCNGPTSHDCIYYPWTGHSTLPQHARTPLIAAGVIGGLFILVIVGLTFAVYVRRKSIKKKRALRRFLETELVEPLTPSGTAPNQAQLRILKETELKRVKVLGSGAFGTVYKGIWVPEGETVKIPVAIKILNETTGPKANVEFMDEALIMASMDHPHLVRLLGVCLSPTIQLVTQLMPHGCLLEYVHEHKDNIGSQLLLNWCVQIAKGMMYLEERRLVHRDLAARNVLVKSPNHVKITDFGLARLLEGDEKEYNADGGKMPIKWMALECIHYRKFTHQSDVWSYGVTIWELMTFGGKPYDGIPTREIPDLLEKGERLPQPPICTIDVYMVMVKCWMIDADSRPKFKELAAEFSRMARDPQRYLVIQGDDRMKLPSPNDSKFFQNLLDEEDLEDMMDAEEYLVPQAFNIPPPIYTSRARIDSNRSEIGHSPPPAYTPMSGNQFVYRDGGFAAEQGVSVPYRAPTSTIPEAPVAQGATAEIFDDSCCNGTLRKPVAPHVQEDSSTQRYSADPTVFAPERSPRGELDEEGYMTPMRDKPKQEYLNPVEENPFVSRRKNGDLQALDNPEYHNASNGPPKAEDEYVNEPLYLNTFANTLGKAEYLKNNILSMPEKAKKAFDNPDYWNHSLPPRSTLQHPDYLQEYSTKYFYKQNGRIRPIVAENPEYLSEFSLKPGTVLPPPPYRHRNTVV
Procedure: as §1, §2, §3

[1] = test system: recombinant human CYP1A2, 2B6, 2C8, 2C9, 2C19, 2D6, 3A4, and FMO3; test: Human recombinant CYP and FMO3 phenotyping; assay type: in vitro ADME; details: of CYPs tested (1A2, 2B6, 2C8, 2C9, 2D6, 3A4) and FMO3
Procedure: The involvement of CYPs and FMO3 in the metabolism of Compound 6 was evaluated using recombinant human CYP1A2, 2B6, 2C8, 2C9, 2C19, 2D6, 3A4, and FMO3 (CYPs and FMO3 from Corning Life Sciences). Incubations contained 0.5 μM of Compound 6, 100 pmol/mL of each CYP isoform, or 0.5 mg/mL of FMO3 isoform, and 1 mM NADPH cofactor in 50 mM potassium phosphate buffer at pH 7.4. All incubations were pre-warmed at 37° C. for 10 minutes, followed by addition of cofactor to initiate the reaction. Incubations were carried out for 60 minutes at 37° C. At each time point (0, 5, 10, 20, 30 and 60 minutes), an aliquot of sample in the incubation pleases was taken and dispersed into a quench plate containing 3-fold volume of acetonitrile and carbutamide as an internal standard. The samples were centrifuged, and the supernatant was analyzed using LC-MS/MS.
Quantitation of the substrate depletion in recombinant CYPs and FMO3 phenotyping, chemical inhibition in hepatocytes, and enzyme kinetics assays were analyzed by monitoring substrate depletion using LC-MS/MS.
The intrinsic clearance of Compound 6 in rCYP and hepatocytes was determined by integrating the parent peak on the chromatograms, and the extent of substrate depletion measured by comparing parent peak area loss over time. […]

IC50 (BMX): 15.2 nM | IC50 (ERBB4): 757 nM
Compound: C=CC(=O)N1CCN([C@@H]2CCNc3c2nn(-c2ccc(Oc4ccccc4)cc2)c3C(N)=O)CC1 [Example 6, (7R)-2-(4-phenoxyphenyl)-7-[4-(prop-2-enoyl)piperazin-1-yl]-4,5,6,7-tetrahydro-2H-pyrazolo[4,3-b]pyridine-3-carboxamide]
major contributing enzyme in metabolism [1]: CYP3A4 was identified as the major contributing enzyme
